This assay addresses T1, human cloned 5-HT6 receptors (Homo sapiens, UniProt P50406).
T1 construct: expressed in transfected cells; host or cells: HeLa cells
The assay can be described thus: 5-HT6 binding affinity, [3H]-LSD displacement. Particulars: membranes of Hela cells expressing human cloned 5-HT6 receptors; [3H]-LSD 3.0 nM; 120 minutes at room temperature.

The Ki is the dissociation constant of the complex between target and ligand, obtained from inhibition or displacement. High values mean lower affinity, low ones higher affinity.

Counter-ions that a name gives are not always drawn.

T1 sequence (P50406 whole entry): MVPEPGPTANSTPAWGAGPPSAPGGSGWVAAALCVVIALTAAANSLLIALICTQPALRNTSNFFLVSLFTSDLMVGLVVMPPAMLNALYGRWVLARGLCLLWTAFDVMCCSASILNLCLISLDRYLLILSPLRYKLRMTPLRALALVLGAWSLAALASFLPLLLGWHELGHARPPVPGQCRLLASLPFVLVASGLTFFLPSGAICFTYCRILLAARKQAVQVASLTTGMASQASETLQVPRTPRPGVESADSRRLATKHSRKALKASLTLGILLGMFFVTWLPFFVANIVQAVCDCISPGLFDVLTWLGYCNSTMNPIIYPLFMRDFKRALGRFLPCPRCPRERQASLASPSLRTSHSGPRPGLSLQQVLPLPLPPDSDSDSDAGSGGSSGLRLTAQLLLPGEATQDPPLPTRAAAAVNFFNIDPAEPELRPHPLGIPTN

Molecule `CN(C)CCOc1cc(F)cc2c(S(=O)(=O)c3cccc4ccccc34)n[nH]c12` [Example 115] had an inhibitory constant (Ki) of 11 to 25 nM. For `CCN(CC)CCOc1cc(F)cc2c(S(=O)(=O)c3cccc4ccccc34)n[nH]c12` [Example 116] the value was 11 to 25 nM.

In turn, `O=S(=O)(c1cccc2ccccc12)c1n[nH]c2c(OCCN3CCCCC3)cc(F)cc12` [Example 117] came in with a Ki of 0.01 to 10 nM. In turn, `O=S(=O)(c1cccc2ccccc12)c1n[nH]c2c(OCCN3CCCC3)cc(F)cc12` [Example 118] displayed a Ki of 0.01 to 10 nM. `CNCCOc1cc(OC)cc2c(S(=O)(=O)c3cccc4ccccc34)nn(Cc3cccc(Cl)c3)c12` [Example 119] yielded an inhibition constant (Ki) greater than 45 nM. For `CCNCCOc1cc(OC)cc2c(S(=O)(=O)c3cccc4ccccc34)nn(Cc3cccc(Cl)c3)c12` [Example 120] the value was greater than 45 nM; for `COc1cc(OCCN(C)C)c2c(c1)c(S(=O)(=O)c1cccc3ccccc13)nn2Cc1cccc(Cl)c1` [Example 121], greater than 45 nM.

Molecule `COc1cc(OCCN2CCCCC2)c2c(c1)c(S(=O)(=O)c1cccc3ccccc13)nn2Cc1cccc(Cl)c1` [Example 122] registered a Ki of 0.01 to 10 nM. The same measure for `COc1cc(OCCN2CCCC2)c2c(c1)c(S(=O)(=O)c1cccc3ccccc13)nn2Cc1cccc(Cl)c1` [Example 123]: greater than 45 nM. In turn, `CNCCOc1cc(OC)cc2c(S(=O)(=O)c3cccc4ccccc34)n[nH]c12` [Example 124] gave an inhibitory constant (Ki) of 11 to 25 nM. For `COc1cc(OCCN(C)C)c2[nH]nc(S(=O)(=O)c3cccc4ccccc34)c2c1` [Example 125] the value was 11 to 25 nM; for `COc1cc(OCCN2CCCCC2)c2[nH]nc(S(=O)(=O)c3cccc4ccccc34)c2c1` [Example 126], 0.01 to 10 nM. For `COc1cc(OCCN2CCCC2)c2[nH]nc(S(=O)(=O)c3cccc4ccccc34)c2c1` [Example 127] the value was 11 to 25 nM; for `CNCCCOc1cccc2c(S(=O)(=O)c3cccc4ccccc34)nn(Cc3cccc(Cl)c3)c12` [Example 128], greater than 45 nM; for `CCNCCCOc1cccc2c(S(=O)(=O)c3cccc4ccccc34)nn(Cc3cccc(Cl)c3)c12` [Example 129], greater than 45 nM.

`CN(C)CCCOc1cccc2c(S(=O)(=O)c3cccc4ccccc34)nn(Cc3cccc(Cl)c3)c12` [Example 130] returned a Ki greater than 45 nM. For `CCN(CC)CCCOc1cccc2c(S(=O)(=O)c3cccc4ccccc34)nn(Cc3cccc(Cl)c3)c12` [Example 131] the value was 11 to 25 nM; for `O=S(=O)(c1cccc2ccccc12)c1nn(Cc2cccc(Cl)c2)c2c(OCCCN3CCCCC3)cccc12` [Example 132], 26 to 35 nM. For `O=S(=O)(c1cccc2ccccc12)c1nn(Cc2cccc(Cl)c2)c2c(OCCCN3CCCC3)cccc12` [Example 133] the value was 11 to 25 nM; for `CNCCCOc1cccc2c(S(=O)(=O)c3cccc4ccccc34)n[nH]c12` [Example 134], 11 to 25 nM; for `CCNCCCOc1cccc2c(S(=O)(=O)c3cccc4ccccc34)n[nH]c12` [Example 135], 36 to 45 nM.

Take `CN(C)CCCOc1cccc2c(S(=O)(=O)c3cccc4ccccc34)n[nH]c12` [Example 136]: the inhibition constant (Ki) lay within 36 to 45 nM. Consider `CCN(CC)CCCOc1cccc2c(S(=O)(=O)c3cccc4ccccc34)n[nH]c12` [Example 137], for which the Ki lay within 26 to 35 nM. In the case of `O=S(=O)(c1cccc2ccccc12)c1n[nH]c2c(OCCCN3CCCCC3)cccc12` [Example 138], the Ki was 36 to 45 nM. `NCCOc1cccc2c(S(=O)(=O)c3ccccc3)n[nH]c12` [Example 139] registered an inhibitory constant (Ki) of 0.01 to 10 nM. For `NCCOc1cc(F)cc2c(S(=O)(=O)c3ccccc3)n[nH]c12` [Example 140] the value was 0.01 to 10 nM. For `NCCOc1cccc2[nH]nc(S(=O)(=O)c3cccc4ccccc34)c12` [Example 141] the value was 11 to 25 nM; for `NCCOc1ccc2c(S(=O)(=O)c3cccc4ccccc34)n[nH]c2c1` [Example 146, 2-{[3-(1-Naphtylsulfonyl)-1H-indazol-6-yl]oxy}ethanamine], 11 to 25 nM. The same measure for `CNCCOc1ccc2c(S(=O)(=O)c3cccc4ccccc34)n[nH]c2c1` [Example 147, N-Methyl-2-{[3-(1-naphthylsulfonyl)-1H-indazol-6-yl]oxy}ethanamine Hydrochloride]: 11 to 25 nM; for `CN(C)CCOc1ccc2c(S(=O)(=O)c3cccc4ccccc34)n[nH]c2c1` [Example 148]: greater than 45 nM. As for `O=S(=O)(c1cccc2ccccc12)c1n[nH]c2cc(OCCN3CCCCC3)ccc12` [Example 149], the Ki is greater than 45 nM. Consider `O=S(=O)(c1cccc2ccccc12)c1n[nH]c2cc(OCCN3CCCC3)ccc12` [Example 150], for which the Ki is greater than 45 nM. Molecule `CN(C)CCNC(=O)c1ccc2[nH]nc(S(=O)(=O)c3cccc4ccccc34)c2c1` [Example 151, N-[2-(Dimethylamino)ethyl]-3-(1-naphthylsulfonyl)-1H-indazole-5-carboxamide] displayed a Ki of 0.01 to 10 nM. The same measure for `O=C(NCCN1CCCCC1)c1ccc2[nH]nc(S(=O)(=O)c3cccc4ccccc34)c2c1` [Example 152, 3-(1-Naphtylsulfonyl)-N-(2-piperidin-1-ylethyl)-1H-indazole-5-carboxamide]: greater than 45 nM. The same measure for `CN(C)CCN(C)Cc1ccc2[nH]nc(S(=O)(=O)c3cccc4ccccc34)c2c1` [Example 153, N,N, N′-Trimethyl-N′-{[3-(1-naphthylsulfonyl)-1H-indazol-5-yl]methyl}ethane-1,2-diamine]: 11 to 25 nM. The molecule `O=S(=O)(c1cccc2ccccc12)c1n[nH]c2ccc(CN[C@H]3CCNC3)cc12` [Example 154, (3S)—N-{([3-(1-Naphthylsulfonyl)-1H-indazol-5-yl]methyl}pyrrolidin-3-amine Hydrochloride] had a Ki of 11 to 25 nM. As for `NCCNCc1ccc2[nH]nc(S(=O)(=O)c3cccc4ccccc34)c2c1` [Example 155, N{[3-(1-Naphthylsulfonyl)-1H-indazol-5yl]methyl}ethane-1.2-diamine], the Ki was 11 to 25 nM. `CN(C)CCOCc1ccc2[nH]nc(S(=O)(=O)c3cccc4ccccc34)c2c1` [Example 156, N,N-Dimethyl-2-{[3-(1-naphthylsulfonyl)-1H-indazol-5-yl]methoxy}ethanamine] returned an inhibitory constant (Ki) of 0.01 to 10 nM. The same measure for `NCCNc1ccc2[nH]nc(S(=O)(=O)c3cccc4ccccc34)c2c1` [Example 157, N1-[3-(Naphthalene-1-sulfonyl)-1H-indazol-5-yl]-ethane-1,2-diamine dihydrochloride]: 0.01 to 10 nM; for `NCCC(=O)Nc1ccc2[nH]nc(S(=O)(=O)c3cccc4ccccc34)c2c1` [Example 158, 3-Amino-N-[3-(naphthalene-1-sulfonyl)-1H-indazol-5-yl]-propionamide hydrochloride]: 0.01 to 10 nM; for `CC(N)CNc1ccc2[nH]nc(S(=O)(=O)c3cccc4ccccc34)c2c1` (centres unmarked) [Example 159, N1-[3-(Naphthalene-1-sulfonyl)-1H-indazol-5-yl]-propane-1,2-diamine hydrochloride]: 11 to 25 nM. On to `NCCNc1cccc2c(S(=O)(=O)c3cccc4ccccc34)n[nH]c12` [Example 161, N1-[3-(Naphthalene-1-sulfonyl)-1H-indazol-7-yl]-ethane-1,2-diamine dihydrochloride], for which the inhibition constant (Ki) is 11 to 25 nM. For `CN(C)CCC(=O)Nc1cccc2c(S(=O)(=O)c3cccc4ccccc34)n[nH]c12` [Example 162, 3-Dimethylamino-N-[3-(naphthalene-1-sulfonyl)-1H-indazol-7-yl]-propionamide hydrochloride] the value was 0.01 to 10 nM; for `O=C(CCN1CCCCC1)Nc1cccc2c(S(=O)(=O)c3cccc4ccccc34)n[nH]c12` [Example 163, N-[3-(Naphthalene-1-sulfonyl)-1H-indazol-7-yl]-3-piperidin-1-yl-propionamide hydrochloride], 11 to 25 nM; for `NCCC(=O)Nc1cccc2c(S(=O)(=O)c3cccc4ccccc34)n[nH]c12` [Example 164, 3-Amino-N-[3-(naphthalene-1-sulfonyl)-1H-indazol-7-yl]-propionamide hydrochloride], 0.01 to 10 nM. For `NCCC(=O)Nc1ccc2c(S(=O)(=O)c3cccc4ccccc34)n[nH]c2c1` [Example 165, 3-Amino-N-[3-(naphthalene-1-sulfonyl)-1H-indazol-6-yl]-propionamide hydrochloride] the value was 11 to 25 nM; for `CCN(CC)CCC(=O)Nc1cccc2c(S(=O)(=O)c3cccc4ccccc34)n[nH]c12` [Example 166, 3-Diethylamino-N-[3-(naphthalene-1-sulfonyl)-1H-indazol-7-yl]-propionamide hydrochloride], 26 to 35 nM.

The molecule `O=C(CCN1CCCCC1)Nc1ccc2c(S(=O)(=O)c3cccc4ccccc34)n[nH]c2c1` [Example 167, N-[3-(Naphthalene-1-sulfonyl)-1H-indazol-6-yl]-3-piperidin-1-yl-propionamide hydrochloride] gave an inhibition constant Ki of 11 to 25 nM. For `CN(C)CCC(=O)Nc1ccc2c(S(=O)(=O)c3cccc4ccccc34)n[nH]c2c1` [Example 168, 3-Dimethylamino-N-[3-(naphthalene-1-sulfonyl)-1H-indazol-6-yl]-propionamide hydrochloride], the inhibitory constant (Ki) was in the range of 36 to 45 nM. The same measure for `CCN(CC)CCC(=O)Nc1ccc2c(S(=O)(=O)c3cccc4ccccc34)n[nH]c2c1` [Example 169, 3-Diethylamino-N-[3-(naphthalene-1-sulfonyl)-1H-indazol-6-yl]-propionamide hydrochloride]: greater than 45 nM; for `NCCNc1ccc2c(S(=O)(=O)c3cccc4ccccc34)n[nH]c2c1` [Example 170, N1-[3-(Naphthalene-1-sulfonyl)-1H-indazol-6-yl]-ethane-1,2-diamine dihydrochloride]: 11 to 25 nM; for `CN(C)CCc1cccc2c(S(=O)(=O)c3ccccc3)n[nH]c12` [Example 171, N,N-Dimethyl-N-{2-[3-(phenylsulfonyl)-1H-indazol-7-yl]ethyl}amine hydrochloride]: 0.01 to 10 nM. Molecule `O=S(=O)(c1ccccc1)c1n[nH]c2c(CCNC3CC3)cccc12` [Example 172, N-{2-[3-(phenylsulfonyl)-1H-indazol-7-yl]ethyl}cyclopropanamine hydrochloride] came in with an inhibition constant Ki of 11 to 25 nM.

For the origin of these results see patent US7723329B2, “Substituted-3-sulfonylindazole derivatives as 5-hydroxytryptamine-6 ligands” (Wyeth LLC, priority 2005, dated 2010).
